Experimental data: ChEMBL document CHEMBL2331505, “Synthesis of quinoline derivatives: discovery of a potent and selective phosphodiesterase 5 inhibitor for the treatment of Alzheimer's disease” (Eur J Med Chem, 2013)

Experiments:
[1] = biological target: cGMP-specific 3',5'-cyclic phosphodiesterase (Homo sapiens, UniProt O76074); assay: Inhibition of PDE5 (unknown origin) using FAM-cGMP as substrate after 60 mins by fluorescence assay
Phosphodiesterase 6 = assay: Inhibition of PDE6 (unknown origin) using FAM-cGMP as substrate after 60 mins by fluorescence assay; format: protein assay, Homo sapiens
Phosphodiesterase 4 = Phosphodiesterase 4 (Homo sapiens, UniProt P27815+Q08499+Q07343+Q08493); assay: Inhibition of PDE4 (unknown origin) using FAM-cAMP as substrate after 60 mins by fluorescence assay; format: protein assay
[2] = biological target: Dual 3',5'-cyclic-AMP and -GMP phosphodiesterase 11A (Homo sapiens, UniProt Q9HCR9); assay: Inhibition of PDE11 (unknown origin) using FAM-cGMP and FAM-cAMP as substrate after 60 mins by fluorescence assay
Sequence of Dual 3',5'-cyclic-AMP and -GMP phosphodiesterase 11A (Q9HCR9 whole entry): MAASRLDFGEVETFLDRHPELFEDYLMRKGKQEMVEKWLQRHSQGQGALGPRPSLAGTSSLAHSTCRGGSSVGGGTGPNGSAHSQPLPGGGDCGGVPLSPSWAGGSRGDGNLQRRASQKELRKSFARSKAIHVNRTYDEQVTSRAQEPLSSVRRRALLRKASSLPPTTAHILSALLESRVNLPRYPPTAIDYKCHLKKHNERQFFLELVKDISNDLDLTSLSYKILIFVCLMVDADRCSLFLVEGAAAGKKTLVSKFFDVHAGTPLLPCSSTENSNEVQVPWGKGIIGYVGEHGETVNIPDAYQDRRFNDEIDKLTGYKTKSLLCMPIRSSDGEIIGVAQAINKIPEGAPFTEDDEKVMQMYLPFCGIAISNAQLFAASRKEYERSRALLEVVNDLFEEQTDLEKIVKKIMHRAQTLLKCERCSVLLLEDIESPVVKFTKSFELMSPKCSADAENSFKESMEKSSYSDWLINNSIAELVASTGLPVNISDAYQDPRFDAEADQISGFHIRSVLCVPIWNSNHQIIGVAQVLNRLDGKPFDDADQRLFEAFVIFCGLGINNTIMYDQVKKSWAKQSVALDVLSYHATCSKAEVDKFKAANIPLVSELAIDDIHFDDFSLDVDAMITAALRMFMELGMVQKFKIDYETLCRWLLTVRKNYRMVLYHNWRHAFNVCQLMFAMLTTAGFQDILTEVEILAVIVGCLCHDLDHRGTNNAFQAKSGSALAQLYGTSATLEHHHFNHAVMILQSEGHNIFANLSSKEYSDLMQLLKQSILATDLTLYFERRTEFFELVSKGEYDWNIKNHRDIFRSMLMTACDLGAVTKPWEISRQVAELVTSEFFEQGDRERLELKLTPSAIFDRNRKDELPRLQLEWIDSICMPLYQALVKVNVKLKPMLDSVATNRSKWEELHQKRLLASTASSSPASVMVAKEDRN

Phosphodiesterase 1 = Phosphodiesterase 1 (Homo sapiens, UniProt P54750+Q01064+Q14123); assay: Inhibition of PDE1 (unknown origin) using FAM-cGMP and FAM-cAMP as substrate after 60 mins by fluorescence assay; format: protein assay
Homo sapiens [3] = species on record: Homo sapiens; assay: Selectivity ratio of IC50 for PDE11 (unknown origin) to IC50 for PDE5 (unknown origin)
Homo sapiens [4] = species on record: Homo sapiens; assay: Selectivity ratio of IC50 for PDE3 (unknown origin) to IC50 for PDE5 (unknown origin)
[5] = biological target: cGMP-dependent 3',5'-cyclic phosphodiesterase (Homo sapiens, UniProt O00408); assay: Inhibition of PDE2 (unknown origin) using FAM-cGMP and FAM-cAMP as substrate after 60 mins by fluorescence assay
Sequence of cGMP-dependent 3',5'-cyclic phosphodiesterase (O00408 whole entry): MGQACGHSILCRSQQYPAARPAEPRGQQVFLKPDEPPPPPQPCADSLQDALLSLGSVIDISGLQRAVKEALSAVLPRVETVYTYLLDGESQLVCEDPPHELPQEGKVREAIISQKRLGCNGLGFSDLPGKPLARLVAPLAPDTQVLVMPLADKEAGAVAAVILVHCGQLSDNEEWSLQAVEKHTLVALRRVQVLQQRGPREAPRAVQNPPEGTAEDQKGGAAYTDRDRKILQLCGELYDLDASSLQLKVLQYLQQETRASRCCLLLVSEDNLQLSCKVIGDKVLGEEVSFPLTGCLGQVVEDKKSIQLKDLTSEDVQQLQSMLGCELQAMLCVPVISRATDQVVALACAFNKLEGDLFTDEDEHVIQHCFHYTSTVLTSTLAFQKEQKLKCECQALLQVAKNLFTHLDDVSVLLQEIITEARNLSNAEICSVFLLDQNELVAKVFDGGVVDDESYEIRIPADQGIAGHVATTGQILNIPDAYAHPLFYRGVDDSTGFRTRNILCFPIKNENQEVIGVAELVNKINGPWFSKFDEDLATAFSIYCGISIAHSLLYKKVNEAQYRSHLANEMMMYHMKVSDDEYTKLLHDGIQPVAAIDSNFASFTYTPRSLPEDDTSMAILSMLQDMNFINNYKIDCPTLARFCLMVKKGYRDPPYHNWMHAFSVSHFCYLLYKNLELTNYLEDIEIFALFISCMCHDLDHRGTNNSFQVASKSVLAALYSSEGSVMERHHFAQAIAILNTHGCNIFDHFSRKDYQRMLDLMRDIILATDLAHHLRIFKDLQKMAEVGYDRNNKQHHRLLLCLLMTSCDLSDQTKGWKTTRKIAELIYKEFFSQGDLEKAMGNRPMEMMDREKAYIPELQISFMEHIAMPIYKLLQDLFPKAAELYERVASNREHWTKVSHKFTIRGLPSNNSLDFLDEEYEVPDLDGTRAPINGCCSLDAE

Homo sapiens [6] = species on record: Homo sapiens; assay: Selectivity ratio of IC50 for PDE6 (unknown origin) to IC50 for PDE5 (unknown origin)
Homo sapiens [7] = species on record: Homo sapiens; assay: Selectivity ratio of IC50 for PDE9 (unknown origin) to IC50 for PDE5 (unknown origin)
Homo sapiens [8] = species on record: Homo sapiens; assay: Selectivity ratio of IC50 for PDE4 (unknown origin) to IC50 for PDE5 (unknown origin)
Homo sapiens [9] = species on record: Homo sapiens; assay: Selectivity ratio of IC50 for PDE10 (unknown origin) to IC50 for PDE5 (unknown origin)
Phosphodiesterase 7 = Phosphodiesterase 7 (Homo sapiens, UniProt Q13946+Q9NP56); assay: Inhibition of PDE7 (unknown origin) using FAM-cAMP as substrate after 60 mins by fluorescence assay; format: protein assay
[10] = biological target: cAMP and cAMP-inhibited cGMP 3',5'-cyclic phosphodiesterase 10A (Homo sapiens, UniProt Q9Y233); assay: Inhibition of PDE10 (unknown origin) using FAM-cGMP and FAM-cAMP as substrate after 60 mins by fluorescence assay
Sequence of cAMP and cAMP-inhibited cGMP 3',5'-cyclic phosphodiesterase 10A (Q9Y233 whole entry): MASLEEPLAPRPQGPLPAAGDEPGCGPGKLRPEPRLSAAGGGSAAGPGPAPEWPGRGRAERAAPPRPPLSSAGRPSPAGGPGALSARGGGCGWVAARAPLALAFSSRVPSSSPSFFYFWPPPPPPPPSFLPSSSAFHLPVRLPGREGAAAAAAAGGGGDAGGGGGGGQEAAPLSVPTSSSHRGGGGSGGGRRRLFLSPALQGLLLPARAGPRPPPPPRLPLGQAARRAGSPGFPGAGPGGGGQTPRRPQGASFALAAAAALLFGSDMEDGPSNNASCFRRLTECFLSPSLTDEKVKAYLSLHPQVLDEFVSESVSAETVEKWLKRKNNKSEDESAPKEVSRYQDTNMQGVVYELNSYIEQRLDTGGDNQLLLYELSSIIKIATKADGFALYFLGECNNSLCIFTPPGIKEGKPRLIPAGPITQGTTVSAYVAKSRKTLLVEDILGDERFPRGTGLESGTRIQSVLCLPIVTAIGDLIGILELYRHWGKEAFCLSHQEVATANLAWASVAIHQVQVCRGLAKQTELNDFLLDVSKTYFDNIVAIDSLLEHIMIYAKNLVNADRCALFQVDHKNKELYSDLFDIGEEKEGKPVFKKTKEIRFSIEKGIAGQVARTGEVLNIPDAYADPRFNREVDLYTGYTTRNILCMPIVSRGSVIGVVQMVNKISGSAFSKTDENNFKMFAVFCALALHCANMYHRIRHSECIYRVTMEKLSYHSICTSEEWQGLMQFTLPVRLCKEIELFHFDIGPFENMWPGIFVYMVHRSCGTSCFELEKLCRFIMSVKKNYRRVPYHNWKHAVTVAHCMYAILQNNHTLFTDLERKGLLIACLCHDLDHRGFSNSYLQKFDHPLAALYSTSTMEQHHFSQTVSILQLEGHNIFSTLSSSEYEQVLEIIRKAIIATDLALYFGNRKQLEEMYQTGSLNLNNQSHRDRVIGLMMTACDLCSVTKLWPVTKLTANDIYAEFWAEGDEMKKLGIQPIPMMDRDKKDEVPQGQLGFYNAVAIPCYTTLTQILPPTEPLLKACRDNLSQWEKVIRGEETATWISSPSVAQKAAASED

Phosphodiesterase 8 = Phosphodiesterase 8 (Homo sapiens, UniProt O95263+O60658); assay: Inhibition of PDE8 (unknown origin) using FAM-cAMP as substrate after 60 mins by fluorescence assay; format: protein assay
Homo sapiens [11] = species on record: Homo sapiens; assay: Selectivity ratio of IC50 for PDE1 (unknown origin) to IC50 for PDE5 (unknown origin)
Homo sapiens [12] = species on record: Homo sapiens; assay: Selectivity ratio of IC50 for PDE2 (unknown origin) to IC50 for PDE5 (unknown origin)
Homo sapiens [13] = species on record: Homo sapiens; assay: Selectivity ratio of IC50 for PDE8 (unknown origin) to IC50 for PDE5 (unknown origin)
Homo sapiens [14] = species on record: Homo sapiens; assay: Selectivity ratio of IC50 for PDE7 (unknown origin) to IC50 for PDE5 (unknown origin)
[15] = biological target: High affinity cGMP-specific 3',5'-cyclic phosphodiesterase 9A (Homo sapiens, UniProt O76083); assay: Inhibition of PDE9 (unknown origin) using FAM-cGMP as substrate after 60 mins by fluorescence assay
Sequence of High affinity cGMP-specific 3',5'-cyclic phosphodiesterase 9A (O76083 whole entry): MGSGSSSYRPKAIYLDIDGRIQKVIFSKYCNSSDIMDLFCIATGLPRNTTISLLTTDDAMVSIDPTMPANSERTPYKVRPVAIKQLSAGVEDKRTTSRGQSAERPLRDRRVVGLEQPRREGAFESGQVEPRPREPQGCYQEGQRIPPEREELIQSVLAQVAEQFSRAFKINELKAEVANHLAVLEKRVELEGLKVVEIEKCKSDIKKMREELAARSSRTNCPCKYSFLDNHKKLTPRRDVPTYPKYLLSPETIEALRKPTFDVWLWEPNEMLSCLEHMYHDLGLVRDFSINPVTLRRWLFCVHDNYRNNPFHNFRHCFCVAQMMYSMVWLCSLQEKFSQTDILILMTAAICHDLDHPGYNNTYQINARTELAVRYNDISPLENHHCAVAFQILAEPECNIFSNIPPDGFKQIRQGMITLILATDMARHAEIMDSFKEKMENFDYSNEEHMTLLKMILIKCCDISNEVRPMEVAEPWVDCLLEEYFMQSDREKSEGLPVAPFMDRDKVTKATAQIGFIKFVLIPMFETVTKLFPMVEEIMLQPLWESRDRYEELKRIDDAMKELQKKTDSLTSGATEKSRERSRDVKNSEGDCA

Phosphodiesterase 3 = Phosphodiesterase 3 (Homo sapiens, UniProt Q14432+Q13370); assay: Inhibition of PDE3 (unknown origin) using FAM-cGMP and FAM-cAMP as substrate after 60 mins by fluorescence assay; format: protein assay

IC50 [1] [µM] | Compound | IC50 (Phosphodiesterase 1) [µM] | IC50 [5] [µM] | IC50 (Phosphodiesterase 7) [µM] | IC50 [10] [µM] | IC50 (Phosphodiesterase 8) [µM] | IC50 [15] [µM] | IC50 (Phosphodiesterase 3) [µM] | other results
0.00063 | COc1ccc(CNc2c(CO)cnc3c(N4CCOCC4)cc(C#N)cc23)cc1Cl | – | – | – | – | – | – | – | –
0.015 | CCNc1cc(C#N)cc2c(NCc3ccc(OC)c(Cl)c3)c(CO)cnc12 | – | – | – | – | – | – | – | –
– | CN1CC(=O)N2[C@H](c3ccc4c(c3)OCO4)c3[nH]c4ccccc4c3C[C@@H]2C1=O | > 10 | > 10 | > 10 | > 10 | > 10 | > 10 | > 10 | –

Compound | IC50 [1] [µM] | IC50 (Phosphodiesterase 1) [µM] | IC50 [5] [µM] | IC50 (Phosphodiesterase 7) [µM] | IC50 [10] [µM] | IC50 (Phosphodiesterase 8) [µM] | IC50 [15] [µM] | IC50 (Phosphodiesterase 3) [µM] | other results
COc1ccc(CNc2c(CO)cnc3c(N(C)C)cc(C#N)cc23)cc1Cl | 0.0004 | > 10 | > 10 | > 10 | > 10 | > 10 | > 10 | > 10 | IC50 (Phosphodiesterase 6): 5.1 µM; IC50 (Phosphodiesterase 4): > 10 µM; IC50 [2]: > 10 µM; Ratio IC50 (Homo sapiens [3]): > 10000; Ratio IC50 (Homo sapiens [4]): > 10000; Ratio IC50 (Homo sapiens [6]): 12800; Ratio IC50 (Homo sapiens [7]): > 10000; Ratio IC50 (Homo sapiens [8]): > 10000; Ratio IC50 (Homo sapiens [9]): > 10000; Ratio IC50 (Homo sapiens [11]): > 10000; Ratio IC50 (Homo sapiens [12]): > 10000; Ratio IC50 (Homo sapiens [13]): > 10000; Ratio IC50 (Homo sapiens [14]): > 10000
